One assay addresses T1, NLRP3 inflammasome (Homo sapiens, UniProt Q96P20).
T1 construct: freshly isolated from human peripheral blood from healthy donors; StemCells Technologies; host or cells: primary human PBMCs
The assay is described as follows: NLRP3 inflammasome activation assay in LPS-primed, nigericin-stimulated PBMCs, IL-1β release. The class given is cell-based. As to conditions: 10 μM nigericin. How it is done:
Some of the following assays were used to determine the inhibitory activity of the compounds on the NLRP3 inflammasome using a common inflammasome activation stimuli-nigericin.
(§1) Human peripheral blood mononuclear cells (PBMCs), consisting of lymphocytes (T, B and NK cells), monocytes and dendritic cells, are freshly isolated from human peripheral blood from healthy donors. Cells are obtained through an IRB approved donor program by iXCells Biotechnologies where all the donors are tested for bacterial and viral infections. Cells are purified from peripheral blood using ficoll gradient centrifugation.
(§2) Fresh or cryopreserved PMBCs are seeded in V-bottom 96-well plate at 0.5-1×10^5 cells per well and incubated overnight at 37° C. with 5% CO2 in RPMI 1640 medium with GlutaMAX supplement, 4.5 g/L D-glucose, 10% Fetal Bovine Serum (FBS), […] Sodium Pyruvate, 1% Penicillin/Streptomycin, 10 mM HEPES and 0.05 mM of […]. Freshly isolated or cryopreserved KCs cells are seeded in flat-bottom 96-well plates at 0.6-1.5×10^5 cells/well and incubated overnight at 37° C., 5% CO2 in RPMI 1640 Medium with GlutaMAX supplement, FBS, 1% Penicillin/Streptomycin and 10 mM HEPES. The following day, the cells are primed with 100 ng/mL of lipopolysaccharides (LPS; Sigma Aldrich) in FBS-free RPMI 1640 for 3 h. After the priming step, the media is removed and PBMCs are pre-incubated with serial concentrations of test compounds (0.00017-10 uM) or vehicle (DMSO) for 30 min in FBS-free media prior to addition of the NLRP3 activator. Cells are then stimulated with 10 μM Nigericin (Sigma Aldrich; InvivoGen) for 1.5 h. Plates were centrifuged at 1,500 rpm for 3 minutes to pellet cells and supernatant was transferred into new plates for subsequent experiments.
For ELISA assays cells are seeded into 96-well plates. Post study, supernatants are removed and the levels of mature IL-1β, IL18 and TNFα (Quantikine ELISA, R&D systems) are measured in cell conditioned media by ELISA according to manufacturer's instructions.
Human frozen PBMCs were purchased from StemCells Technologies. Cells were rapidly thawed in 37° C. water bath and resuspended in fresh assay media consisting of RPMI 1640 Medium containing 1% sodium pyruvate, 10 mM HEPES, 2.5 g/L glucose and 55 μM 2-Mercaptoethanol. Cell density was adjusted to 8.1×10^5 cells/mL. Cells were primed by adding lipopolysaccharide (Invivogen Ultrapure lipopolysaccharide from E. coli, tlrl-3pelps) at a final concentration of 100 ng/mL in cell suspension. 37 μL of cell suspension with LPS was seeded per well of a 384 well plate and incubated for 3 hours at 37° C. and 5% CO2. After priming, PBMCs were preincubated with serially diluted test compounds with starting concentration of 40 μM followed by 2-fold dilution for a 20-point curve or vehicle (DMSO) for 30 min in assay media at 37° C. and 5% CO2. Cells were then stimulated with 10 μM nigericin (Invivogen, tlrl-nig-5) for 90 min at 37° C. and 5% CO2 to activate NLRP3 dependent inflammasome pathway and IL-1β release in cell culture supernatant. Cells were centrifuged at 1200 RPM for 1 min and 40 μL of supernatant was transferred into fresh plates and stored at −80° C. until IL-1β analysis.
16 μL of supernatant was added to white 384 well HTRF plates, followed by addition of 4 μL of HTRF cocktail in each well. Plates were quickly centrifuged, sealed and incubated overnight at room temperature. Next day, HTRF signal was read on a Pherastar and ratio of 665/620 was calculated based on manufacturer's protocol to obtain concentration of IL-1β in cell culture supernatant.

A further assay has as its system PBMCs. Kind of assay: CTG (CellTiter-Glo) viability assay of compound-treated LPS and nigericin stimulated PBMCs. The format is cell-based, human. How it is done: as §1, §2
Viability of compound treated cells is measured using CellTiter-Glo® assay (Promega, Madison, Wis.) that measures the ATP content of cells which is proportional to the number of live cells within a well. This is a counter-screen to establish that the reduction of IL-1β levels in LPS and nigericin stimulated and compound treated cells is not due to cytotoxicity, but rather through the inhibition of the inflammasome pathway. Compounds inhibiting NRLP3 inflammasome activation ultimately increase the viability of LPS and nigericin stimulated cells by blocking NLRP3 mediated pyroptosis that would otherwise lead to cell lysis.
A general note: Cellular ATP, detected with luciferase, serves as a proxy for viable cell number.

Setting [1] is: PBMC, LPS priming, read-out: PMBC IL-1β IC50.
[2] abbreviates: Homo sapiens, PBMC, read-out: PMBC CTG IC50.
[3] abbreviates: LPS 100 ng/mL priming, read-out: IL-1B pIC50 (converted).
[4] abbreviates: Homo sapiens, PBMC, LPS and nigericin stimulated cells, read-out: CTG pIC50 (converted).
Setting [5] is: LPS and nigericin stimulated cells, read-out: CTG pIC50 (converted).

Where two headings read alike, the source gives them in different places.

T1 sequence (Q96P20 whole entry): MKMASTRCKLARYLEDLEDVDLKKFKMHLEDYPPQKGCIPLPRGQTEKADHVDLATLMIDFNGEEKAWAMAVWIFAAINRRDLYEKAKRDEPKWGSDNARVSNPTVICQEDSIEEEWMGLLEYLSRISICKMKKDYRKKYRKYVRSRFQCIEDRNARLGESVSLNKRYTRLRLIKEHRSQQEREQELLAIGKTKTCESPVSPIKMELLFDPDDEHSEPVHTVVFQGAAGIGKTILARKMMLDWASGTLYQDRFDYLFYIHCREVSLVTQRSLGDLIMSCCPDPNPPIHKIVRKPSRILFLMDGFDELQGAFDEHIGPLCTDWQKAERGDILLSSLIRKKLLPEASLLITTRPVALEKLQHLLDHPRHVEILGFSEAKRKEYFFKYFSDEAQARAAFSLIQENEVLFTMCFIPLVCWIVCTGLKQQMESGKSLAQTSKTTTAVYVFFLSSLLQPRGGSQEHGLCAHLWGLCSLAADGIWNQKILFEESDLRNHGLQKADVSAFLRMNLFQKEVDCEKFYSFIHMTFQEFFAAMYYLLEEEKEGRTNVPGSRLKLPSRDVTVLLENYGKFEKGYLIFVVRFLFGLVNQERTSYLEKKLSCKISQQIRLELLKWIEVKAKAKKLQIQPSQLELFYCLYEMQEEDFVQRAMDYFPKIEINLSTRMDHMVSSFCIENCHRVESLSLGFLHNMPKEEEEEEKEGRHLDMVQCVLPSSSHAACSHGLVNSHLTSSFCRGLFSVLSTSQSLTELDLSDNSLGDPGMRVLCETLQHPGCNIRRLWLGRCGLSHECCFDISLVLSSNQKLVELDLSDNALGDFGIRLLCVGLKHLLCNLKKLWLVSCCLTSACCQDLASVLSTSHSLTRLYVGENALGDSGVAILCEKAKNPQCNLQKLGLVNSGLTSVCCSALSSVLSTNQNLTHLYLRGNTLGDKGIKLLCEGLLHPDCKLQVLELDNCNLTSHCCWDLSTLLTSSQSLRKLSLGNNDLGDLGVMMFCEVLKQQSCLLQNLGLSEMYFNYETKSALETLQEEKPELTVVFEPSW

On to `O=C(NC1C2CC3CC(C2)CC1C3)NS(=O)(=O)c1cnn2c1OCCC2` (centres unmarked) [Example 3, N-(((1r,3r,5r,7r)-adamantan-2-yl)carbamoyl)-6,7-dihydro-5H-pyrazolo[5,1-b][1,3]oxazine-3-sulfonamide], for which the IC50 was 2.08 µM at NLRP3 inflammasome (setting [1]) and more than 10 µM in the assay with PBMCs (setting [2]).
In the case of `CC(C)c1cc(Cl)nc(C(C)C)c1NC(=O)NS(=O)(=O)c1cnn2c1OCCC2` [drawing 399], the IC50 on NLRP3 inflammasome (setting [3]) and with PBMCs (setting [4]) was 0.1 to 1 µM in each case.
Turning to `CC(C)c1cc(C2CC2)nc(C(C)C)c1NC(=O)NS(=O)(=O)c1cnn2c1OCCC2` [Example 45, N-((6-cyclopropyl-2,4-diisopropylpyridin-3-yl)carbamoyl)-6,7-dihydro-5H-pyrazolo[5,1-b][1,3]oxazine-3-sulfonamide], the IC50 at NLRP3 inflammasome (setting [1]) came out at 0.91 µM; in the assay with PBMCs (setting [2]), 0.37 µM.
Take `COc1cc(C(C)C)c(NC(=O)NS(=O)(=O)c2cnn3c2OC[C@@H](OC)C3)c(C(C)C)n1` [Example 37a, Sodium (S)—N-((2,4-diisopropyl-6-methoxypyridin-3-yl)carbamoyl)-6-methoxy-6,7-dihydro-5H-pyrazolo[5,1-b][1,3]oxazine-3-sulfonamide]: the IC50 on NLRP3 inflammasome (setting [1]) is 0.55 µM; in the assay on PBMCs (setting [2]), 0.6 µM.
Regarding `CC(C)c1cc(N(C)C)nc(C(C)C)c1NC(=O)NS(=O)(=O)c1cnn2c1OCCC2` [Example 51, Sodium N-((6-(dimethylamino)-2,4-diisopropylpyridin-3-yl)carbamoyl)-6,7-dihydro-5H-pyrazolo[5,1-b][1,3]oxazine-3-sulfonamide], the IC50 was 2.07 µM on NLRP3 inflammasome (setting [1]) and 1.12 µM in the assay with PBMCs (setting [2]).
Take `CC(C)c1cncc(C(C)C)c1NC(=O)NS(=O)(=O)c1cnn2c1OCCC2` [drawing 394]: the IC50 on NLRP3 inflammasome (setting [3]) is 1 to 10 µM; in the assay on PBMCs (setting [5]), less than 0.1 µM.
`O=C(NC1C2CC3CC(C2)C1C3)NS(=O)(=O)c1cnn2c1OCCC2` (centres unmarked): the IC50 at NLRP3 inflammasome (setting [3]) was 1 to 10 µM; with PBMCs (setting [4]), more than 10 µM.
In the case of `CCn1nc(C(C)C)c(NC(=O)NS(=O)(=O)c2cnn3c2OCCC3)c1C(C)C` [drawing 401], the IC50 at NLRP3 inflammasome (setting [3]) was 1 to 10 µM; in the assay with PBMCs (setting [4]), 0.1 to 1 µM.
Taken in the same sequence, the figures for `COc1cc(C(C)C)c(NC(=O)NS(=O)(=O)c2cnn3c2OC[C@@H](N2CC(OC)C2)C3)c(C(C)C)n1` [drawing 409] were less than 0.1 µM and 0.1 to 1 µM.
In the case of `CC(C)c1cncc(C(C)C)c1NC(=O)NS(=O)(=O)c1cnn2c1OCCC2` [Example 28, N-((3,5-diisopropylpyridin-4-yl)carbamoyl)-6,7-dihydro-5H-pyrazolo[5,1-b][1,3]oxazine-3-sulfonamide], the figures for the IC50 at NLRP3 inflammasome (setting [1]) and in the assay on PBMCs (setting [2]) were 1.79 µM and 0.069 µM, respectively.
Take `COc1cc(C(C)C)c(NC(=O)NS(=O)(=O)c2cnn3c2OC[C@@H](OC)C3)c(C(C)C)n1` [drawing 404]: the IC50 at NLRP3 inflammasome (setting [3]) and in the assay with PBMCs (setting [4]) was 0.1 to 1 µM each time.
`CC(C)c1cc(C2CC2)nc(C(C)C)c1NC(=O)NS(=O)(=O)c1cnn2c1OCCC2` [drawing 412]: the IC50 on NLRP3 inflammasome (setting [3]) and in the assay on PBMCs (setting [4]) was 0.1 to 1 µM in each case.
On to `CC(C)c1nn(C(C)C)c(C(C)C)c1NC(=O)NS(=O)(=O)c1cnn2c1OCCC2` [drawing 400], for which the IC50 on NLRP3 inflammasome (setting [3]) and with PBMCs (setting [4]) was 1 to 10 µM in each case.
Consider `CC(C)c1nn(CC2CC2)c(C(C)C)c1NC(=O)NS(=O)(=O)c1cnn2c1OCCC2` [drawing 402], for which the IC50 at NLRP3 inflammasome (setting [3]) and with PBMCs (setting [4]) was 0.1 to 1 µM throughout.
As to `CO[C@@H]1COc2c(S(=O)(=O)NC(=O)Nc3c(C(C)C)nn(C)c3C(C)C)cnn2C1` [drawing 405], the IC50 is 1 to 10 µM on NLRP3 inflammasome (setting [3]) and 0.1 to 1 µM with PBMCs (setting [4]).
With `CC(C)c1ccnc(C(C)C)c1NC(=O)NS(=O)(=O)c1cnn2c1OCCC2` [Example 31, N-((2,4-diisopropylpyridin-3-yl)carbamoyl)-6,7-dihydro-5H-pyrazolo[5,1-b][1,3]oxazine-3-sulfonamide], the IC50 on NLRP3 inflammasome (setting [1]) came to 4.38 µM; in the assay with PBMCs (setting [2]), 0.89 µM.
Turning to `CC(C)c1cc(Cl)nc(C(C)C)c1NC(=O)NS(=O)(=O)c1cnn2c1OCCC2` [Example 32, N-((6-chloro-2,4-diisopropylpyridin-3-yl)carbamoyl)-6,7-dihydro-5H-pyrazolo[5,1-b][1,3]oxazine-3-sulfonamide], the IC50 on NLRP3 inflammasome (setting [1]) stood at 0.59 µM; in the assay with PBMCs (setting [2]), 0.92 µM.
Regarding `CC(C)c1ccnc(C(C)C)c1NC(=O)NS(=O)(=O)c1cnn2c1OCCC2` [drawing 398], the IC50 at NLRP3 inflammasome (setting [3]) is 1 to 10 µM; with PBMCs (setting [5]), 0.1 to 1 µM.
In the case of `O=C(NC1(c2ccccc2)CC1)NS(=O)(=O)c1cnn2c1OCCC2` [Example 11, N-((1-phenylcyclopropyl)carbamoyl)-6,7-dihydro-5H-pyrazolo[5,1-b][1,3]oxazine-3-sulfonamide], the IC50 at NLRP3 inflammasome (setting [1]) and with PBMCs (setting [2]) was more than 10 µM throughout.
Consider `COc1cc(C(C)C)c(NC(=O)NS(=O)(=O)c2cnn3c2OCC(CNC(C)=O)C3)c(C(C)C)n1` (centres unmarked), for which the IC50 on NLRP3 inflammasome (setting [3]) and with PBMCs (setting [4]) was 1 to 10 µM each time.
Take `CC(C)n1nc2c(c1NC(=O)NS(=O)(=O)c1cnn3c1OCCC3)CCC2` [drawing 411]: the IC50 is 1 to 10 µM at NLRP3 inflammasome (setting [3]) and more than 10 µM with PBMCs (setting [4]).
On to `CC(C)c1ccnc(C(C)C)c1NC(=O)NS(=O)(=O)c1cnn2c1OCCC2` [drawing 397], for which the IC50 on NLRP3 inflammasome (setting [3]) and in the assay on PBMCs (setting [5]) was 1 to 10 µM each time.
For `CCOc1cc(C(C)C)c(NC(=O)NS(=O)(=O)c2cnn3c2OCCC3)c(C(C)C)n1` [drawing 417], the IC50 on NLRP3 inflammasome (setting [3]) and in the assay on PBMCs (setting [4]) was 1 to 10 µM throughout.
Consider `CC(C)c1cc(C#N)nc(C(C)C)c1NC(=O)NS(=O)(=O)c1cnn2c1OCCC2` [drawing 416], for which the figures for the IC50 at NLRP3 inflammasome (setting [3]) and in the assay with PBMCs (setting [4]) were 1 to 10 µM and 0.1 to 1 µM, respectively.
For the compound `COc1cc(C(C)C)c(NC(=O)NS(=O)(=O)c2cnn3c2OCCC3)c(C(C)C)n1` [drawing 396], the IC50 at NLRP3 inflammasome (setting [3]) and in the assay with PBMCs (setting [4]) was 0.1 to 1 µM in each case.
As for `O=C(Nc1c(-c2ccccc2)nc2ccccn12)NS(=O)(=O)c1cnn2c1OCCC2` [drawing 375], at NLRP3 inflammasome (setting [3]), the IC50 was more than 10 µM.
On to `O=C(Nc1c(-c2ccccc2)nc2ccccn12)NS(=O)(=O)c1cnn2c1OCCC2` [Example 10, N-((2-phenylimidazo[1,2-a]pyridin-3-yl)carbamoyl)-6,7-dihydro-5H-pyrazolo[5,1-b][1,3]oxazine-3-sulfonamide], for which the IC50 on NLRP3 inflammasome (setting [1]) is more than 10 µM.
Same read-out and setting: the result for `O=C(NC1(c2ccccc2)CCCCCC1)NS(=O)(=O)c1cnn2c1OCCC2` [Example 12, N-((1-phenylcycloheptyl)carbamoyl)-6,7-dihydro-5H-pyrazolo[5,1-b][1,3]oxazine-3-sulfonamide] reads more than 10 µM.
With `O=C(Nc1nc(Cl)cc(Cl)n1)NS(=O)(=O)c1cnn2c1OCCC2` [drawing 369], the IC50 on NLRP3 inflammasome (setting [3]) was more than 10 µM.
Take `CC1(C)CCc2ccccc2C1NC(=O)NS(=O)(=O)c1cnn2c1OCCC2` (centres unmarked) [drawing 366]: on NLRP3 inflammasome (setting [3]), the IC50 is more than 10 µM.
Regarding `C=C(C)c1cncc(C(=C)C)c1NC(=O)NS(=O)(=O)c1cnn2c1OCCC2` [Example 27, N-((3,5-di(prop-1-en-2-yl)pyridin-4-yl)carbamoyl)-6,7-dihydro-5H-pyrazolo[5,1-b][1,3]oxazine-3-sulfonamide], the IC50 at NLRP3 inflammasome (setting [1]) was more than 10 µM.
